“Also recorded” adds a separate entry of the source.
Assays:
EMT6 cells = test: MTT cell proliferation assay; format: cell-based, murine; settings: EMT6, in vitro, 72 h
Description: (§1) FIGS. 2I-2K show FACS analysis of Hsp90β expression on the cell surface of E0771 cells treated with DMSO or EnnA. FIGS. 2L-2N show FACS analysis of the ratio of Hsp90α to Hsp90β expression on the cell surface of E0771 cells treated with DMSO or EnnA. FIGS. 2O-2Q show FACS analysis of Hsp90α expression on the cell surface of E0771 cells treated with DMSO or EnnA. FIG. 2R is a bar graph showing expression of Hsp90β on the surface of AT3 cells treated with DMSO or EnnA. FIG. 2S is a bar graph showing expression of Hsp90α on the surface of AT3 cells treated with DMSO or EnnA. FIGS. 2T-2X show FACS analysis of Hsp90β expression on the surface of E0771 tumor cells treated with mIgG, DMSO, or EnnA.
(§2) The mechanism of action of EnnA appears to be different from that of 17-AAG. […] Further studies studies using murine breast cancer cells lines have shown that EnnA kills E0771, AT3, EMT6 and 4T1 in vitro (FIG. 2A-2D).

E0771 cells = test: MTT cell proliferation assay; format: cell-based, murine; settings: E0771, in vitro, 72 h
Description: as §1, §2

AT3 cells = test: MTT cell proliferation assay; format: cell-based, murine; settings: AT3, in vitro, 72 h
Description: as §1, §2

4T1 cells = test: MTT cell proliferation assay; format: cell-based, murine; settings: 4T1, in vitro, 72 h
Description: as §1, §2

E0771 murine cells = test: autophagy in E0771 cells (fluorescence micrographs); format: cell-based
[1] = test system: Hsp90 chaperoning machine; test: progesterone receptor (PR) refolding assay using reticulocyte lysate (RRL); format: biochemical; settings: 10 μM EnnA
Description: The first bar indicates 100% folding activity of RRL without inhibitor. PR22 indicates the antibody without PR but with RRL and EnnA. PR represents the antibody (PR22) with PR but without RRL. All other samples have PR22, PR, and RRL without (first bar) or with increased concentration of EnnA. FIGS. 1C-1E are line graphs of cell survival versus EnnA concentration (μM) in breast cancer cell lines Hs578T (FIG. 1C), […] (FIG. 1D) and MDA-MB231 (FIG. 1E) upon treatment with EnnA for 48 and 72 h. […] PR alone (PR), antibody (PR22)+RRL, PR+RRL without inhibitor (RRL), PR+RRL with 1 μM 17-AAG (17AAG) PR+RRL with 10 μM BEAU or EnnA. FIGS. 1G-1I are autoradiographs of Western blots of cytosols from various cell lines treated with 17-AAG (1 μM) or EnnA (3 μM) with antibodies against the specified proteins. FIG. 1J is an autoradiograph showing EnnA causes autophagy in Hs578T and MDA-MB453 cell lines. FIGS. 1K-1N are electron microscopy micrographs showing autophagosomes and reduced mitochondria content in Hs578T cells treated with DMSO or EnnA. FIGS. 1O-1P are fluorescence micrographs showing EnnA causing reduced mitochondria content in Hs578T cells. FIGS. 1Q-1BB are fluorescence micrographs showing mitophagy in Hsp578T cells treated with EnnA as indicated by colocalization of the mitochondria marker Cox4 and the autophagy marker LC3BII.
A cell-free high-throughput screen (HTS) platform based on the progesterone receptor (PR) using reticulocyte lysate (RRL) as a source of molecular chaperones was used to screen 175 natural products (Patwardhan C A, et al., J Biomol Screen (2014)). This assay captures the physiological steps of PR refolding by the Hsp90 chaperoning machine and measures the recovery of its hormone-binding activities after mild heat treatment. It has the ability to identify inhibitors as well as activators of the core components of the Hsp90 chaperoning machine (i.e., Hsp90, Hsp70, Hsp40, Hsp90/Hsp70 organizing protein (HOP), and p23), including compounds that target chaperone complexes as well as individual proteins.

E0771 tumors [2] = test: E0771 tumor model: EnnA versus 17-AAG and combinations with CPA or anti-CD8; format: in vivo, mice
Procedure: Groups of mice (n=10) were implanted with 50,000 E0771 cells. When tumors were about 150 mm3 in volume (10 days post-implantation), mice were injected every other day with DMSO, EnnA (10 mg/Kg) or 17-AAG (10 mg/Kg). Two extra groups were made. In one group, EnnA was combined with one dose (150 mg/Kg) of cyclophosphamide (CPA) on day 14. In the other EnnA was combined with anti-CD8 antibody (250 μg/mouse) injected on day 18 and 22.

E0771 tumors [3] = test: re-challenge of cured mice with E0771 cells (immune memory); format: in vivo; settings: EnnA/CPA-treated group re-challenged with 50,000 E0771 cells; tumors completely eliminated 10 days later
Description: FIG. 6A is a line graph of tumor volume (mm^3) versus days post implantation. FIG. 6B-6E are images of three representative mice from each indicated group at the end of the treatment. FIGS. 6F-6I are a panel of images of mice from the CPA+EnnA group monitored for tumor recurrence for two more months (3 months post implantation). No tumor recurrence was observed. They were re-challenged with 50,000 E0771 cells implanted in the opposite fat pad. Five Naïve mice were used as controls. Upper panels and lower show luciferase luminescence images of mice bearing tumors at 7 and 17 days after the second implantation, respectively.
The anti-tumor activity of EnnA involves both cytotoxicity and clearance by T cells. […] Indeed, EnnA/CPA-treated mice remained tumor-free for 2 months after the end of EnnA treatment. To test whether the cured mice developed immune memory, […] 50,000 E0771 tumor cells.

Compound: CC[C@H](C)[C@H]1C(=O)O[C@H](C(C)C)C(=O)N(C)[C@@H]([C@@H](C)CC)C(=O)O[C@H](C(C)C)C(=O)N(C)[C@@H]([C@@H](C)CC)C(=O)O[C@H](C(C)C)C(=O)N1C [EnnA, Enniatin A]
- IC50 (EMT6 cells): ~2.5 µM
- IC50 (E0771 cells): 5 to 10 µM
- IC50 (AT3 cells): 5 to 10 µM
- IC50 (4T1 cells): ~2.5 µM
- autophagy (E0771 murine cells): induces autophagy
- level of Hsp90 in PR complexes ([1]; protein complex analysis after PR reconstitution): reduces
- accumulation of Hsp70-rich PR complexes ([1]; protein complex analysis, 1 μM 17-AAG): does not induce
- breast cancer metastasis to the lungs (E0771 tumors [2]; E0771 tumor bearing mice, H&E lung sections): prevents
- tumor outcome (E0771 tumors [2]; EnnA 10 mg/Kg combined with one dose (150 mg/Kg) of cyclophosphamide (CPA) on day 14): completely cured
- tumor growth after CD8 T cell depletion (E0771 tumors [2]; EnnA combined with anti-CD8 antibody (250 μg/mouse) on day 18 and 22): restores an aggressive tumor growth; also recorded: rapid regrowth of tumors
- time mice remained tumor-free after the end of EnnA treatment (E0771 tumors [2]; EnnA/CPA-treated mice): 2 months
- anti-tumor efficacy compared with 17-AAG (E0771 tumors [2]; each 10 mg/Kg every other day): more efficacious than 17-AAG
- mice showing small tumors seven days after the second implantation (E0771 tumors [3]): two of the seven

Source: patent publication US11446352B2, “Compositions and methods for inhibiting tumor-induced immune suppression” (priority 2017, dated 2022)
